The results in this text go back to patent US20220273659A1, “HETEROCYCLIC COMPOUNDS AS KINASE INHIBITORS” (NUVATION BIO INC., priority 2019, published 2022).

The structures appear in SMILES notation. Where only a bound is given, the exact number is not on record here.

One assay has as its target T1, CDK4 (Homo sapiens, UniProt P11802).
T1 construct: purchased Invitrogen PR8064A
The assay is described as follows: In vitro kinase inhibition IC50, luminescence (ADP Glo), retinoblastoma substrate. The class given is biochemical. The note with it: read-out: CDK4/D1 IC50. The essentials: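 CDK4 enzyme (5 nM, Invitrogen) was combined with test compound and a mix of retinoblastoma substrate (1 μM) plus ATP (25 μM) in kinase buffer, 30 μL/well in 96-well half area white plates. After 2H at room temperature, ADP Glo reagent stopped the reaction for 45 min, then detection reagent was added and luminescence was read.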

In a further assay the target is T2, CDK6 (Homo sapiens, UniProt Q00534).
T2 construct: purchased Invitrogen PR8422B
Described as above. The class given is biochemical. The note with it: read-out: CDK6/D1 IC50. The essentials: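 Recombinant CDK6 (5 nM) with retinoblastoma substrate (1 μM) and 25 μM ATP, compound at final 0.1–200 nM, incubated 2 h at room temperature. ADP formed detected by ADP-Glo luminescence. IC50 from four-parameter logistic fit of percent inhibition.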

The next assay concerns the target T3, FMS kinase (Homo sapiens, UniProt P07333).
T3 construct: purchased Invitrogen (Life Technologies)
The assay is described as follows: LanthaScreen Eu Kinase Binding Assay (ATP, fluorescent-PolyGT substrate). In kind it is biochemical. The essentials:
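Kinase (1.25 nM) preincubated 10 min with 3-fold compound dilutions, then ATP 10 μM and fluorescent PolyGT substrate 200 nM added for 1 h in the dark at room temperature. Stopped with Tb-antibody (4 nM) and EDTA 20 mM; TR-FRET at 340 nm excitation, 495/520 nm emission; IC50 from four-parameter fit.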
A general note: In TR-FRET formats the signal depends on donor and acceptor labels being close together.

For a further assay, the target named is T4, PI3Kδ kinase (Homo sapiens, UniProt O00329).
T4 construct: purchased Reaction Biology Corporation (assay service)
The assay is described as follows: PI3Kδ kinase assay (ADP-Glo, Reaction Biology). In kind it is biochemical. As to the method:
IC50 values of compounds against the PI3Kδ kinase were determined by an assay performed by Reaction Biology Corporation (Malvern, Pa.). Briefly, this assay was conducted in buffer (Tris-HCl 40 mM (pH7.5), Orthovanadate 3 mM, MgCl2 20 mM, DTT 2 mM, CHAPS 0.05%, DMSO 1%). PI3Kδ kinase was added to the reaction solution and mixed gently. The test compounds in 100% DMSO (at specific solutions) were mixed with the kinase reaction mixture to achieve the final compounds at pre-defined concentrations (e.g., range −0.5 nM to 100 μM) by Acoustic technology (Echo550; nanoliter range). After incubating for 10 min at room temp, ATP was added into the reaction mixture to initiate the reaction followed by a 30-min incubation at 30° C. After quenching the reaction with ADP-Glo reagent, the plates were incubated for 40 min. The Detection Mixture was added, and the plate was incubated for an additional 30 min. At the end of incubation, luminescence was measured. For data analysis, the luminescence was converted into μM ADP production based on ADP standard curves. The nonlinear regression to obtain the standard curve and IC50 values was performed using GraphPad Prism (GraphPad Software, Inc., San Diego, Calif.).

Assay [1] relates to DU4475 breast carcinoma cells. The assay is described as follows: Cancer cell proliferation assay, single agent (cell viability). The class given is cell-based. The note with it: Homo sapiens, DU-4475; Table 4; Rb negative; treatment 144 Hr with medium change at 72 Hr; Cell Titer-Glo or resazurin. The procedure, abridged: (§1)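 Cells seeded day 1, then exposed on day 2 to 7–9 compound concentrations (e.g. 1.1 nM–10 μM); BT-549 for 24 h, MCF-7 and DU4475 for 144 h with medium change at 72 h. Viability by CellTiter-Glo or resazurin; IC50 from variable-slope sigmoidal fit.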
(In general: Cellular ATP, detected with luciferase, serves as a proxy for viable cell number.)

The test system of assay [2] is MCF-7 breast adenocarcinoma cells. Described as above. In kind it is cell-based. The note with it: Homo sapiens, MCF7, Table 4; Rb positive; treatment 144 Hr with medium change at 72 Hr; Cell Titer-Glo or resazurin. The procedure, abridged:
as §1

T3 sequence (P07333 20-972): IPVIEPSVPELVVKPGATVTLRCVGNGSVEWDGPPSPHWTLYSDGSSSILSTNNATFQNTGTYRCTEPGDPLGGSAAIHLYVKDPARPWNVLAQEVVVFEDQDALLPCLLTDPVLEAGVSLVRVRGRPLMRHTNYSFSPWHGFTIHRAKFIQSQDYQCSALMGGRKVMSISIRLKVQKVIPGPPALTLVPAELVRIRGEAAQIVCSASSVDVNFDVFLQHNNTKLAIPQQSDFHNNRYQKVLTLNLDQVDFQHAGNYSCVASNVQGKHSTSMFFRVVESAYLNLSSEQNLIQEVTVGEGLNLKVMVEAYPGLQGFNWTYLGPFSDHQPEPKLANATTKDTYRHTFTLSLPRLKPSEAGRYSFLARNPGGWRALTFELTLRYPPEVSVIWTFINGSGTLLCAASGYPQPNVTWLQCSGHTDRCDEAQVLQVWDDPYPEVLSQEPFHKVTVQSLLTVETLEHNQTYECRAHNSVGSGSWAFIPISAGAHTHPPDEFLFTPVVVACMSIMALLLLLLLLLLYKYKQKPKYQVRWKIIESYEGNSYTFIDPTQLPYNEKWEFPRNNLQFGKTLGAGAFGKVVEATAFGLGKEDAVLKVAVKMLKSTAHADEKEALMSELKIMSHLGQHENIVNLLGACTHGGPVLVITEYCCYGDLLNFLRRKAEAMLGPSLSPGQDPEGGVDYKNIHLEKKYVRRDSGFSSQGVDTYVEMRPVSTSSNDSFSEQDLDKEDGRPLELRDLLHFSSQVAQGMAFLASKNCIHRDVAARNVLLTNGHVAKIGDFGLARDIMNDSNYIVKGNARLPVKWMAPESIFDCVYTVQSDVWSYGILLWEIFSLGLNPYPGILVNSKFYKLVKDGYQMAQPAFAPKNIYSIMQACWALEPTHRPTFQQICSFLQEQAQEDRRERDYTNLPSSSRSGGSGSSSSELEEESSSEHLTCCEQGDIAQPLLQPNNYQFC
T4 sequence (O00329 whole entry): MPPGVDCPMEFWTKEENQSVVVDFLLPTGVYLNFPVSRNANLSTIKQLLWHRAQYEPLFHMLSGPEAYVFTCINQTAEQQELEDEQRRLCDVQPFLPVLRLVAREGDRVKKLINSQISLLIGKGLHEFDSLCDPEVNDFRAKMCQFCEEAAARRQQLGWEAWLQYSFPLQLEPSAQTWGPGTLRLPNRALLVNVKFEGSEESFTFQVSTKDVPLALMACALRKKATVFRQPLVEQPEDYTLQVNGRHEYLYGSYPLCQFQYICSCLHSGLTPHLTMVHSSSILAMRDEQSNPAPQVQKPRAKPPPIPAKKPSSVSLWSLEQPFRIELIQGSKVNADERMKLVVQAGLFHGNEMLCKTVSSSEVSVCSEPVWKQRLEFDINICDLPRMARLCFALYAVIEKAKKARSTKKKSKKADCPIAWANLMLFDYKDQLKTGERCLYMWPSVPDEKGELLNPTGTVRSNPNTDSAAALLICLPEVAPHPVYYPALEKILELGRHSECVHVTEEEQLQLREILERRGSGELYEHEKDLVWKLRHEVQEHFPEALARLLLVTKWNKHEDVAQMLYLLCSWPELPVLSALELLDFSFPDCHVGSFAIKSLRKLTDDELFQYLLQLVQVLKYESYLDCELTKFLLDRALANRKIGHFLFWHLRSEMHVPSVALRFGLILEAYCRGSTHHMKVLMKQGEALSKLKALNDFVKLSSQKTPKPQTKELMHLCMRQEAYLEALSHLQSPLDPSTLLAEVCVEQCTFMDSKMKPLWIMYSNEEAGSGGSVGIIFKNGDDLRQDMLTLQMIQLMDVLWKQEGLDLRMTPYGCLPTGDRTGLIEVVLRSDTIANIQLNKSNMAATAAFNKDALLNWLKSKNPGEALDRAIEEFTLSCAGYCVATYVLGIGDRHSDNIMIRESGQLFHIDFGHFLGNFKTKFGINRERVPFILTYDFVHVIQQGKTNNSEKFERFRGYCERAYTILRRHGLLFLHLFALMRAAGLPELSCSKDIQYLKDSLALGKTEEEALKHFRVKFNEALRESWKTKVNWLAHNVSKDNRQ
T4 sequence (P27986 whole entry partner): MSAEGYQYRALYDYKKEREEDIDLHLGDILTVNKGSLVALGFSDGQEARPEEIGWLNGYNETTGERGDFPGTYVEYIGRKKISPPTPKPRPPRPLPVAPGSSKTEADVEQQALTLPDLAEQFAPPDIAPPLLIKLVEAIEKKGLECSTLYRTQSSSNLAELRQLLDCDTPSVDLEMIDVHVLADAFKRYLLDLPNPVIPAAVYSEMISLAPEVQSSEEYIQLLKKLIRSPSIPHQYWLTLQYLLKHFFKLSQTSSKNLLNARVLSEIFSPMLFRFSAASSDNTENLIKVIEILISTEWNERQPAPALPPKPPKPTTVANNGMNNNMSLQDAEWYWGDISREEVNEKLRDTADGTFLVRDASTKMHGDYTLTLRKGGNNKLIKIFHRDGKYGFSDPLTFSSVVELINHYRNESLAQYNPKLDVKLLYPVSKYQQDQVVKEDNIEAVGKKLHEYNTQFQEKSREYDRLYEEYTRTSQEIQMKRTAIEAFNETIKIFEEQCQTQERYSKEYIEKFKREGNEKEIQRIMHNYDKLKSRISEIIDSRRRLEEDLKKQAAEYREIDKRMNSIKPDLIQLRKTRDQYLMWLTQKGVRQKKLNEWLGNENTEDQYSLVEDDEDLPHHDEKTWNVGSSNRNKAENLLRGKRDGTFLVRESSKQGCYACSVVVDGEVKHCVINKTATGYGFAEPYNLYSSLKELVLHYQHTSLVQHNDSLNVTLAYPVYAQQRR
T1 sequence (P11802 whole entry): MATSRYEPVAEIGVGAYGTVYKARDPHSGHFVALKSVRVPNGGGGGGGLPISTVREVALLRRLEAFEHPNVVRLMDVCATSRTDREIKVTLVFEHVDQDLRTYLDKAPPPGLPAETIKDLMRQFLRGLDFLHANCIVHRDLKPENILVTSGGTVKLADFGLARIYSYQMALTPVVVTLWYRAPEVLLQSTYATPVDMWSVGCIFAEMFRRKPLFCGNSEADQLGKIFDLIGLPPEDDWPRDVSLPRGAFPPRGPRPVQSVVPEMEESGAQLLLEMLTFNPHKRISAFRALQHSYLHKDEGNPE
T1 sequence (P24385 whole entry partner): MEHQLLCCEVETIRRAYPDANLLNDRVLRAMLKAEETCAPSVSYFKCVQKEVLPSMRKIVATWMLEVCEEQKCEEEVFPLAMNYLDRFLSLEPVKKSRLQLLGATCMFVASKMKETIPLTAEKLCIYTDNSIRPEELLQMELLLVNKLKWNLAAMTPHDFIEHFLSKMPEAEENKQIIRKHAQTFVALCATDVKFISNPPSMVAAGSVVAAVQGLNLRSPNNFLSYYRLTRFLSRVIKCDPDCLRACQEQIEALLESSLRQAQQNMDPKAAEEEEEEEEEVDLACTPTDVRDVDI
T2 sequence (Q00534 whole entry): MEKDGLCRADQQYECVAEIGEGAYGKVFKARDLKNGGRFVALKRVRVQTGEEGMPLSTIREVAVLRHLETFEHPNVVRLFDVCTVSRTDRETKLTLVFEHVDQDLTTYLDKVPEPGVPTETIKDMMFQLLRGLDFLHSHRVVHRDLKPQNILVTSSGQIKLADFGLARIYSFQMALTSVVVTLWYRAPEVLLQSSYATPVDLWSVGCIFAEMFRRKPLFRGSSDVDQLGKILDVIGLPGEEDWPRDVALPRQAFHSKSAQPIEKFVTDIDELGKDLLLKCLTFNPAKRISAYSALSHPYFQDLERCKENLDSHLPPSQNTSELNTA
T2 sequence (P24385 whole entry partner): as the sequence (P24385 whole entry partner) above

`N#Cc1cc2cnc(Nc3ccc(N4CCN5CCCCC5C4)c(F)c3)nc2n(C2CCCC2)c1=O` (centres unmarked) [Compound No. 59, 8-cyclopentyl-2-((3-fluoro-4-(octahydro-2H-pyrido[1,2-a]pyrazin-2-yl)phenyl)amino)-7-oxo-7,8-dihydropyrido[2,3-d]pyrimidine-6-carbonitrile]: the IC50 was 6 nM at CDK4; 22 nM at CDK6; 1 nM on FMS kinase; 1310 nM at PI3Kδ kinase; 1320 nM in assay [1]; 540 nM in assay [2].
As to `N#Cc1cc2cnc(Nc3ccc(N4CCN5CCCC5C4)c(F)c3)nc2n(C2CCCC2)c1=O` (centres unmarked) [Compound No. 55, 8-cyclopentyl-2-((3-fluoro-4-(hexahydropyrrolo[1,2-a]pyrazin-2(1H)-yl)phenyl)amino)-7-oxo-7,8-dihydropyrido[2,3-d]pyrimidine-6-carbonitrile], the IC50 worked out at 6.5 nM on CDK4; 16 nM on CDK6; 0.6 nM on FMS kinase; 1690 nM against PI3Kδ kinase; 1260 nM in assay [1]; 480 nM in assay [2].
For the compound `CN(C)CC(=O)N1CCc2ccc(Nc3ncc4cc(C#N)c(=O)n(C5CCCC5)c4n3)cc2C1` [Compound No. 53, 8-cyclopentyl-2-((2-(dimethylglycyl)-1,2,3,4-tetrahydroisoquinolin-7-yl)amino)-7-oxo-7,8-dihydropyrido[2,3-d]pyrimidine-6-carbonitrile], the IC50 at CDK4 was 2.5 nM; on CDK6, 4 nM; at FMS kinase, 9.5 nM; at PI3Kδ kinase, 249 nM; in assay [1] it was 1280 nM; in assay [2], 190 nM.
`CN1CCC(c2ccc(Nc3ncc4cc(C#N)c(=O)n(C5CCCC5)c4n3)cc2)CC1` [Compound No. 40, 8-cyclopentyl-2-((4-(1-methylpiperidin-4-yl)phenyl)amino)-7-oxo-7,8-dihydropyrido[2,3-d]pyrimidine-6-carbonitrile]: the IC50 on CDK4 was greater than 200 nM; at CDK6, 76 nM; at FMS kinase, 1 nM; at PI3Kδ kinase, 416 nM; in assay [1], 2800 nM; in assay [2], 133 nM.
On to `CN(C)CC(=O)N1CCc2cc(Nc3ncc4cc(C#N)c(=O)n(C5CCCC5)c4n3)ccc2C1` [Compound No. 54, 8-cyclopentyl-2-((2-(dimethylglycyl)-1,2,3,4-tetrahydroisoquinolin-6-yl)amino)-7-oxo-7,8-dihydropyrido[2,3-d]pyrimidine-6-carbonitrile], for which the IC50 came to 3 nM at CDK4; 3.5 nM at CDK6; 7 nM on FMS kinase; 248 nM against PI3Kδ kinase; 1100 nM in assay [1]; 150 nM in assay [2].
As to `CN(C)C1CCN(c2ccc(Nc3ncc4cc(C#N)c(=O)n(C5CCCC5)c4n3)cc2F)CC1` [Compound No. 44, 8-cyclopentyl-2-((4-(4-(dimethylamino)piperidin-1-yl)-3-fluorophenyl)amino)-7-oxo-7,8-dihydropyrido[2,3-d]pyrimidine-6-carbonitrile], the IC50 on CDK4 came to 2 nM; on CDK6, 1 nM; on FMS kinase, 2.5 nM; on PI3Kδ kinase, 95 nM; in assay [2], 95 nM.
Turning to `N#Cc1cc2cnc(Nc3ccn(C4CCNCC4)c(=O)c3)nc2n(C2CCCC2)c1=O` [Compound No. 60, 8-cyclopentyl-7-oxo-2-((2-oxo-1-(piperidin-4-yl)-1,2-dihydropyridin-4-yl)amino)-7,8-dihydropyrido[2,3-d]pyrimidine-6-carbonitrile], the IC50 on CDK4 came out at 52 nM; at CDK6, 55 nM; at FMS kinase it was 18 nM; on PI3Kδ kinase it was 34 nM; in assay [1], 5080 nM; in assay [2], 6900 nM.
Take `N#Cc1cc2cnc(Nc3ccc(N4CCNCC4=O)c(F)c3)nc2n(C2CCCC2)c1=O` [Compound No. 57, 8-cyclopentyl-2-((3-fluoro-4-(2-oxopiperazin-1-yl)phenyl)amino)-7-oxo-7,8-dihydropyrido[2,3-d]pyrimidine-6-carbonitrile]: the IC50 at CDK4 stood at 6.5 nM; at CDK6, 12 nM; at FMS kinase, 1 nM; against PI3Kδ kinase, 249 nM; in assay [1], 5180 nM; in assay [2], 1480 nM.
Turning to `CN1CCN(c2ccc(Nc3ncc4cc(C#N)c(=O)n(C5CCCC5)c4n3)cc2F)CC1` [Compound No. 36, 8-cyclopentyl-2-((3-fluoro-4-(4-methylpiperazin-1-yl)phenyl)amino)-7-oxo-7,8-dihydropyrido[2,3-d]pyrimidine-6-carbonitrile], the IC50 on CDK4 is 1 nM; at CDK6, 1 nM; on FMS kinase it was 6.5 nM; against PI3Kδ kinase, 1030 nM; in assay [2] it was 315 nM.
Take `CN1CCN(c2ccc(Nc3ncc4cc(C#N)c(=O)n(C5CCCC5)c4n3)cc2CO)CC1` [Compound No. 10, 8-cyclopentyl-2-((3-(hydroxymethyl)-4-(4-methylpiperazin-1-yl)phenyl)amino)-7-oxo-7,8-dihydropyrido[2,3-d]pyrimidine-6-carbonitrile]: the IC50 was 1 nM at CDK4; 1 nM at CDK6; less than 1 nM at FMS kinase; 310 nM on PI3Kδ kinase; 1640 nM in assay [1]; 90 nM in assay [2].
On to `CN(C)C1Cc2ccc(Nc3ncc4cc(C#N)c(=O)n(C5CCCC5)c4n3)cc2C1` (centres unmarked) [Compound No. 47, 8-cyclopentyl-2-((2-(dimethylamino)-2,3-dihydro-1H-inden-5-yl)amino)-7-oxo-7,8-dihydropyrido[2,3-d]pyrimidine-6-carbonitrile], for which the IC50 on CDK4 turned out to be 9.5 nM; on CDK6, 4 nM; at FMS kinase it was 2.5 nM; against PI3Kδ kinase, 345 nM; in assay [2], 345 nM.
Regarding `N#Cc1cc2cnc(Nc3ccc(C4CCNCC4)cc3)nc2n(C2CCCC2)c1=O` [Compound No. 37, 8-cyclopentyl-7-oxo-2-((4-(piperidin-4-yl)phenyl)amino)-7,8-dihydropyrido[2,3-d]pyrimidine-6-carbonitrile], the IC50 came to 6.5 nM on CDK4; 2.5 nM at CDK6; 5.8 nM on FMS kinase; 64 nM on PI3Kδ kinase; 2220 nM in assay [1]; 353 nM in assay [2].
Turning to `N#Cc1cc2cnc(Nc3ccc(C4CCNCC4)c(F)c3)nc2n(C2CCCC2)c1=O` [Compound No. 43, 8-cyclopentyl-2-((3-fluoro-4-(piperidin-4-yl)phenyl)amino)-7-oxo-7,8-dihydropyrido[2,3-d]pyrimidine-6-carbonitrile], the IC50 turned out to be 5 nM at CDK4; 3 nM at CDK6; 1.5 nM at FMS kinase; 180 nM against PI3Kδ kinase; 180 nM in assay [2].
